One compound from paper PMC7313537 (PLoS ONE, 2020) can be followed below.

For one experiment, the target named is LOK (Homo sapiens, UniProt O94804). The experiment is described as follows: Broader kinase panel (PerkinElmer). The format is biochemical. Particulars: 100 nM; read-out: Average Percent Inhibition. The text has this: (§1) […]. […] […].
The next experiment concerns the target MAPKAPK2 (Homo sapiens, UniProt P49137). The experiment is described as follows: Broader kinase panel (PerkinElmer). The format is biochemical. Particulars: 100 nM; read-out: Average Percent Inhibition.
From the text: as §1

For a further experiment, the target named is T1, MAPKAPK3 (Homo sapiens, UniProt Q16644).
T1 construct: purchased In-house HTRF panel (56 kinases) and PerkinElmer (161-kinase panel)
The experiment is described as follows: Broader kinase panel (PerkinElmer). In kind it is biochemical. Particulars: 100 nM; read-out: Average Percent Inhibition.
From the text: as §1

The next experiment has as its target T2, MSK1 (Homo sapiens, UniProt O75582).
T2 construct: purchased In-house HTRF panel (56 kinases) and PerkinElmer (161-kinase panel)
The experiment is described as follows: Broader kinase panel (PerkinElmer). The format is biochemical. Particulars: 100 nM; read-out: Average Percent Inhibition.
From the text: as §1

The target of the next experiment is T3, MSK2 (Homo sapiens, UniProt O75676).
T3 construct: purchased In-house HTRF panel (56 kinases) and PerkinElmer (161-kinase panel)
The experiment is described as follows: Broader kinase panel (PerkinElmer). In kind it is biochemical. Particulars: 100 nM; read-out: Average Percent Inhibition.
From the text: as §1

A further experiment has as its target T4, MST2 (Homo sapiens, UniProt Q13188).
T4 construct: purchased In-house HTRF panel (56 kinases) and PerkinElmer (161-kinase panel)
The experiment is described as follows: Broader kinase panel (PerkinElmer). In kind it is biochemical. Particulars: 100 nM; read-out: Average Percent Inhibition.
From the text: as §1

The target in another experiment is T5, NEK2 (Homo sapiens, UniProt P51955).
T5 construct: purchased In-house HTRF panel (56 kinases) and PerkinElmer (161-kinase panel)
The experiment is described as follows: Broader kinase panel (PerkinElmer). In kind it is biochemical. Particulars: 100 nM; read-out: Average Percent Inhibition.
From the text: as §1

A further experiment concerns the target T6, PAK5 (PAK7) (Homo sapiens, UniProt Q9P286).
T6 construct: purchased In-house HTRF panel (56 kinases) and PerkinElmer (161-kinase panel)
The experiment is described as follows: Broader kinase panel (PerkinElmer). Particulars: 100 nM; read-out: Average Percent Inhibition. The format is biochemical.
From the text: as §1

The next experiment concerns the target T7, PKA (Homo sapiens, UniProt P17612).
T7 construct: purchased In-house HTRF panel (56 kinases) and PerkinElmer (161-kinase panel)
The experiment is described as follows: Broader kinase panel (PerkinElmer). In kind it is biochemical. To be noted: 100 nM; read-out: Average Percent Inhibition.
From the text: as §1

In the next experiment the target is T8, PKCb2 (Homo sapiens, UniProt P05771).
T8 construct: purchased In-house HTRF panel (56 kinases) and PerkinElmer (161-kinase panel)
The experiment is described as follows: Broader kinase panel (PerkinElmer). The format is biochemical. To be noted: 100 nM; read-out: Average Percent Inhibition.
From the text: as §1

The next experiment concerns the target T9, PKCz (Homo sapiens, UniProt Q05513).
T9 construct: purchased In-house HTRF panel (56 kinases) and PerkinElmer (161-kinase panel)
The experiment is described as follows: Broader kinase panel (PerkinElmer). In kind it is biochemical. Particulars: 100 nM; read-out: Average Percent Inhibition.
From the text: as §1

The target in the next experiment is T10, PKD3 (Homo sapiens, UniProt O94806).
T10 construct: purchased In-house HTRF panel (56 kinases) and PerkinElmer (161-kinase panel)
The experiment is described as follows: Broader kinase panel (PerkinElmer). In kind it is biochemical. To be noted: 100 nM; read-out: Average Percent Inhibition.
From the text: as §1

For the next experiment, the target named is RET (Homo sapiens, UniProt P07949). The experiment is described as follows: Broader kinase panel (PerkinElmer). To be noted: 100 nM; read-out: Average Percent Inhibition. In kind it is biochemical.
From the text: as §1

For a further experiment, the target named is T11, RSK3 (Homo sapiens, UniProt Q15349).
T11 construct: purchased In-house HTRF panel (56 kinases) and PerkinElmer (161-kinase panel)
The experiment is described as follows: Broader kinase panel (PerkinElmer). The format is biochemical. Particulars: 100 nM; read-out: Average Percent Inhibition.
From the text: as §1

Another experiment has as its target T12, RSK4 (Homo sapiens, UniProt Q9UK32).
T12 construct: purchased In-house HTRF panel (56 kinases) and PerkinElmer (161-kinase panel)
The experiment is described as follows: Broader kinase panel (PerkinElmer). Particulars: 100 nM; read-out: Average Percent Inhibition. In kind it is biochemical.
From the text: as §1

The target in another experiment is T13, SGK1 (Homo sapiens, UniProt O00141).
T13 construct: purchased In-house HTRF panel (56 kinases) and PerkinElmer (161-kinase panel)
The experiment is described as follows: Broader kinase panel (PerkinElmer). The format is biochemical. Particulars: 100 nM; read-out: Average Percent Inhibition.
From the text: as §1

In the next experiment the target is T14, SRM (SRMS) (Homo sapiens, UniProt Q9H3Y6).
T14 construct: purchased In-house HTRF panel (56 kinases) and PerkinElmer (161-kinase panel)
The experiment is described as follows: Broader kinase panel (PerkinElmer). To be noted: 100 nM; read-out: Average Percent Inhibition. The format is biochemical.
From the text: as §1

A further experiment addresses SYK (Homo sapiens, UniProt P43405). The experiment is described as follows: Broader kinase panel (PerkinElmer). In kind it is biochemical. To be noted: 100 nM; read-out: Average Percent Inhibition.
From the text: as §1

The next experiment has as its target T15, ZIPK (DAPK3) (Homo sapiens, UniProt O43293).
T15 construct: purchased In-house HTRF panel (56 kinases) and PerkinElmer (161-kinase panel)
The experiment is described as follows: Broader kinase panel (PerkinElmer). In kind it is biochemical. Particulars: 100 nM; read-out: Average Percent Inhibition.
From the text: as §1

For another experiment, the target named is T16, c-Raf (Homo sapiens, UniProt P04049).
T16 construct: purchased In-house HTRF panel (56 kinases) and PerkinElmer (161-kinase panel)
The experiment is described as follows: Broader kinase panel (PerkinElmer). The format is biochemical. Particulars: 100 nM; read-out: Average Percent Inhibition.
From the text: as §1

The next experiment concerns the target T17, p38-gamma (Homo sapiens, UniProt P53778).
T17 construct: purchased In-house HTRF panel (56 kinases) and PerkinElmer (161-kinase panel)
The experiment is described as follows: Broader kinase panel (PerkinElmer). The format is biochemical. To be noted: 100 nM; read-out: Average Percent Inhibition.
From the text: as §1

In the next experiment the test system is KMS12BM. The experiment is described as follows: Cell viability assay (CellTiter-Glo). The format is cell-based. To be noted: Homo sapiens, KMS-12-BM; Myeloma; lacking FGFR alterations. In general terms: Cellular ATP, detected with luciferase, serves as a proxy for viable cell number.

The structures appear in SMILES notation.

T14 sequence (Q9H3Y6 whole entry): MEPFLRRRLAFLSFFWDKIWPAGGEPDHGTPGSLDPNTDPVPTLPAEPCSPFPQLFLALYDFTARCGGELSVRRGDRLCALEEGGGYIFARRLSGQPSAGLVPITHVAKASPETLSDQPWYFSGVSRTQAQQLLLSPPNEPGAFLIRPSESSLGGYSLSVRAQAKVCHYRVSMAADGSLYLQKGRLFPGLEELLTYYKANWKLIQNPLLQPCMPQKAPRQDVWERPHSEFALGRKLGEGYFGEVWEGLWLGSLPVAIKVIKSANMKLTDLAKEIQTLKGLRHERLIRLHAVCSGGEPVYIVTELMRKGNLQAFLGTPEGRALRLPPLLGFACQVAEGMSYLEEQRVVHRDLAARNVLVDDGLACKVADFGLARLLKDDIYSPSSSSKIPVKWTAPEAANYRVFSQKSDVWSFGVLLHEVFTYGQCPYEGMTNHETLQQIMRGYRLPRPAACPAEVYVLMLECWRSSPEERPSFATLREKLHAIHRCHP
T3 sequence (O75676 whole entry): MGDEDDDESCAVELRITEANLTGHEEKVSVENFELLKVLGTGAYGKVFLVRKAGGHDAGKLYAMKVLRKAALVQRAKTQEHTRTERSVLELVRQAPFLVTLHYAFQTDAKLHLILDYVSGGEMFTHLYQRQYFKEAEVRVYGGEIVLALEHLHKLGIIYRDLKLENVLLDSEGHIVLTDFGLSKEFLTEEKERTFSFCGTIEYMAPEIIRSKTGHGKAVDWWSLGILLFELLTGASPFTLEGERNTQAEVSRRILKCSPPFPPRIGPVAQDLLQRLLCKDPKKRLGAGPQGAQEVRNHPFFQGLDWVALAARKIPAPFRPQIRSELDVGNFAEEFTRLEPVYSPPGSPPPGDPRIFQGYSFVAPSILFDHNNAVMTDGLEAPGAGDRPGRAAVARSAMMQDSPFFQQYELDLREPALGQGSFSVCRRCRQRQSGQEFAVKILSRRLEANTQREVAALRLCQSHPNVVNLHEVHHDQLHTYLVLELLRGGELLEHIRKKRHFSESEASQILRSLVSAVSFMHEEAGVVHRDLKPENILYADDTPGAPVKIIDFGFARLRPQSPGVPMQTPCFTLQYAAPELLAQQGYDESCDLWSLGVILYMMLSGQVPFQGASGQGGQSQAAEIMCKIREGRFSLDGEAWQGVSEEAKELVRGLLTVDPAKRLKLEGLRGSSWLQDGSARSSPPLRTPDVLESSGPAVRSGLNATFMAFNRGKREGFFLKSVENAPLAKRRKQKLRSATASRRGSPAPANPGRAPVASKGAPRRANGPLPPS
T10 sequence (O94806 whole entry): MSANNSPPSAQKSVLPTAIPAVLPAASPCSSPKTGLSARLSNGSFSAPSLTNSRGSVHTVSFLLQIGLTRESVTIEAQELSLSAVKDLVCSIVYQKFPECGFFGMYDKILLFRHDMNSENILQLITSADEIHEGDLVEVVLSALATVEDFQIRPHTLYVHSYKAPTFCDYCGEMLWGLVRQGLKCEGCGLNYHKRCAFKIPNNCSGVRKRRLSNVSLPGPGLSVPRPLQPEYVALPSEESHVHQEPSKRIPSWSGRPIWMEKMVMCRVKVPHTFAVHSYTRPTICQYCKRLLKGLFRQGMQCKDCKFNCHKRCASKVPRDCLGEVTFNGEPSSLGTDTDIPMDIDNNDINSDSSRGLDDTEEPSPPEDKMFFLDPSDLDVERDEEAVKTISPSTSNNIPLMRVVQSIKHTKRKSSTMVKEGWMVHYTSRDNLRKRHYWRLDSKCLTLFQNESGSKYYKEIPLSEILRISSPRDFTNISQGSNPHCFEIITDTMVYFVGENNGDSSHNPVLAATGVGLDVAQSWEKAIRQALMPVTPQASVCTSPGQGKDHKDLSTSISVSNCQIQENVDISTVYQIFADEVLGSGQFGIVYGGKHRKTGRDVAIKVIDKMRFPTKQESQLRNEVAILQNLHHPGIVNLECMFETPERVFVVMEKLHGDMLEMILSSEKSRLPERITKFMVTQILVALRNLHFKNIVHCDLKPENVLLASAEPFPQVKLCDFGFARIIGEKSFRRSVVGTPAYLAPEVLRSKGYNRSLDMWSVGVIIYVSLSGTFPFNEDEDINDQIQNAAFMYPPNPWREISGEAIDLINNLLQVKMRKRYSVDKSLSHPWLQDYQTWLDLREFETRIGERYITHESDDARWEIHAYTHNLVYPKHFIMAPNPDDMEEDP
Chain of MAPKAPK2 (P49137 whole entry, species assumed): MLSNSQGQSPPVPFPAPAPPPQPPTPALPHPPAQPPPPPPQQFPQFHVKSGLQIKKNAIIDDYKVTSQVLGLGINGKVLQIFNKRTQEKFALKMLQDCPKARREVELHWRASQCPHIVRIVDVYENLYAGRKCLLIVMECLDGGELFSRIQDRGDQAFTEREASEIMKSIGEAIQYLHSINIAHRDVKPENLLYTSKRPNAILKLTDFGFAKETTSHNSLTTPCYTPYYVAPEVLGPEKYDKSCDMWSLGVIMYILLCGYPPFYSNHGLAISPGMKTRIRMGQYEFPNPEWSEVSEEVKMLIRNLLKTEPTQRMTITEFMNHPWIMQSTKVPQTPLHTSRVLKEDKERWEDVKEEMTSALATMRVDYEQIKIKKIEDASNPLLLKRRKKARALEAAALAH
T9 sequence (Q05513 whole entry): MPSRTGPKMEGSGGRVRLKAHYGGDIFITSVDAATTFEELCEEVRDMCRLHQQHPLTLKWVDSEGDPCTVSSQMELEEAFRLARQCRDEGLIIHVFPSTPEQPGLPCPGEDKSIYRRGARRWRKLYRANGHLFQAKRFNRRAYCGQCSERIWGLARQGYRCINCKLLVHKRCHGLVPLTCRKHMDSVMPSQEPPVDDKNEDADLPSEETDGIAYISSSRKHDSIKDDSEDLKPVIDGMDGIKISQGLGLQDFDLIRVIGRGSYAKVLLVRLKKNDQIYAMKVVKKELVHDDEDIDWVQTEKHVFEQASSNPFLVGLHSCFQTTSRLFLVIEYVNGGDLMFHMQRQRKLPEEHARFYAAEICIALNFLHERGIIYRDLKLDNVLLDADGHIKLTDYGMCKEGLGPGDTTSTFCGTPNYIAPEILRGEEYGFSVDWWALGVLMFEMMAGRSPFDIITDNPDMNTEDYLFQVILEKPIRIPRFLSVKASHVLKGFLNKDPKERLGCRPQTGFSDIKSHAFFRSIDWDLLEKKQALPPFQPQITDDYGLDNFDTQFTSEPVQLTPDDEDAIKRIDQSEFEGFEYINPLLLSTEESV
T6 sequence (Q9P286 whole entry): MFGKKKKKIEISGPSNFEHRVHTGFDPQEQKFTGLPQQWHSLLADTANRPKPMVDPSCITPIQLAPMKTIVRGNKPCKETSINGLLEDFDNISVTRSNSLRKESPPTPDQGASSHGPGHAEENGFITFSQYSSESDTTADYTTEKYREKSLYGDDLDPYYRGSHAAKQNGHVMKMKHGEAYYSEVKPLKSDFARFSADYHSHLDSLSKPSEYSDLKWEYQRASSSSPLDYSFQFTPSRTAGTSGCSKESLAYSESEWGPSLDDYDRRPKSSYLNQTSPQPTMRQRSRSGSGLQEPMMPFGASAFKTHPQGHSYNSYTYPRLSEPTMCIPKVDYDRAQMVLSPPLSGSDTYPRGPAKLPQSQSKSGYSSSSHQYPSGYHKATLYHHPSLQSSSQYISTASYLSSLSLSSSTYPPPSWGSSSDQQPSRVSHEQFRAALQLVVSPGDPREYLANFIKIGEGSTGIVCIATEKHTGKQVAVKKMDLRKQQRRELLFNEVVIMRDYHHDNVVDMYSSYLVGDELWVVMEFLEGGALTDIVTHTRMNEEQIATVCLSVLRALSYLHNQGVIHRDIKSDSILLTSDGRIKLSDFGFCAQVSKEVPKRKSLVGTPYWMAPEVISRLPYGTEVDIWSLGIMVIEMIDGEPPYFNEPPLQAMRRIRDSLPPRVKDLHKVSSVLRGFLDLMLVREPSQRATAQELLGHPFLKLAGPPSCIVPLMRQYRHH
T15 sequence (O43293 whole entry): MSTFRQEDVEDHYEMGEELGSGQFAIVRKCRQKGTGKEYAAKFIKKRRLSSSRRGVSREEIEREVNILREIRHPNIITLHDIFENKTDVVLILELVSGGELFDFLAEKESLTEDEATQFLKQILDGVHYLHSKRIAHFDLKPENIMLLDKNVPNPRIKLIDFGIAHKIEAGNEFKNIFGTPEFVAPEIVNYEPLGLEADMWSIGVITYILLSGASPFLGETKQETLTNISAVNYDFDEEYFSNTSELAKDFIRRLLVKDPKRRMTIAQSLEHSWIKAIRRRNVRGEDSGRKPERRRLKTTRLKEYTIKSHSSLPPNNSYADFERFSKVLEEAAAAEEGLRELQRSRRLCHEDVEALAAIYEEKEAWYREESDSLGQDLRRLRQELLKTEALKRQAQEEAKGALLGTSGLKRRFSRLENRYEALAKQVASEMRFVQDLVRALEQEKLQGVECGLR
T17 sequence (P53778 whole entry): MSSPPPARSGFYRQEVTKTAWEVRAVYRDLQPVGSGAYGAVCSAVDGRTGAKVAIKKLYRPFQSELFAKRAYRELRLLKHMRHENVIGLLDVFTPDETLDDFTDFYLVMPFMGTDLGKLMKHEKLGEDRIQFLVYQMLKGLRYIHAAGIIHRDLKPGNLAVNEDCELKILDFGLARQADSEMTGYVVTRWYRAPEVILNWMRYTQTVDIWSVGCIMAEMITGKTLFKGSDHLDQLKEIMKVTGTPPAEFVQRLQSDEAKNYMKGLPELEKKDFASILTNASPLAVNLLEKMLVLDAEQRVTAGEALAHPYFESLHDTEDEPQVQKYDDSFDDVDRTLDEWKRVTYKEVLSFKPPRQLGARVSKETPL

Consider `CCN1C(=O)N(c2c(F)c(OC)cc(OC)c2F)Cc2cnc3[nH]c(CN4CCOCC4)cc3c21` [INCB054828, pemigatinib], for which the inhibition (commonly the relative decrease from the control value, in per cent) at 0.1 µM is -1% at LOK; 0% at MAPKAPK2; 1% at MAPKAPK3; 1% at MSK1; -7% at MSK2; 3% at MST2. Also, the inhibition at 0.1 µM is -4% on NEK2; 6% at PAK5 (PAK7); 1% on PKA; 0% on PKCb2; 1% at PKCz; 0% at PKD3. Further, the inhibition at 0.1 µM was 7% on RET; -3% on RSK3; -1% at RSK4; 1% on SGK1; 1% on SRM (SRMS); -2% on SYK. Also, the values for the inhibition at 0.1 µM at ZIPK (DAPK3), at c-Raf and on p38-gamma were 7%, 3% and -3%, respectively. Besides, the GI50 (as a rule, the concentration that inhibits growth by half) with KMS12BM was 2.89 µM.
